Source: BindingDB's records for doi:10.3109/14756361003698147 (Shandong University, 2012)
pIC50: −log10 of the molar value. Structures can show the parent of a compound that is named as a salt.

How the values were obtained:
[1] = target: 72 kDa type IV collagenase (Homo sapiens, UniProt P08253); assay: In Vitro MMP-2 Inhibition Assay; settings: pH 8.5; 25 °C
Aminopeptidase N = target: T1, Aminopeptidase N (Sus scrofa, UniProt P15145); assay: In Vitro APN Inhibition Assay
T1 sequence (P15145 whole entry): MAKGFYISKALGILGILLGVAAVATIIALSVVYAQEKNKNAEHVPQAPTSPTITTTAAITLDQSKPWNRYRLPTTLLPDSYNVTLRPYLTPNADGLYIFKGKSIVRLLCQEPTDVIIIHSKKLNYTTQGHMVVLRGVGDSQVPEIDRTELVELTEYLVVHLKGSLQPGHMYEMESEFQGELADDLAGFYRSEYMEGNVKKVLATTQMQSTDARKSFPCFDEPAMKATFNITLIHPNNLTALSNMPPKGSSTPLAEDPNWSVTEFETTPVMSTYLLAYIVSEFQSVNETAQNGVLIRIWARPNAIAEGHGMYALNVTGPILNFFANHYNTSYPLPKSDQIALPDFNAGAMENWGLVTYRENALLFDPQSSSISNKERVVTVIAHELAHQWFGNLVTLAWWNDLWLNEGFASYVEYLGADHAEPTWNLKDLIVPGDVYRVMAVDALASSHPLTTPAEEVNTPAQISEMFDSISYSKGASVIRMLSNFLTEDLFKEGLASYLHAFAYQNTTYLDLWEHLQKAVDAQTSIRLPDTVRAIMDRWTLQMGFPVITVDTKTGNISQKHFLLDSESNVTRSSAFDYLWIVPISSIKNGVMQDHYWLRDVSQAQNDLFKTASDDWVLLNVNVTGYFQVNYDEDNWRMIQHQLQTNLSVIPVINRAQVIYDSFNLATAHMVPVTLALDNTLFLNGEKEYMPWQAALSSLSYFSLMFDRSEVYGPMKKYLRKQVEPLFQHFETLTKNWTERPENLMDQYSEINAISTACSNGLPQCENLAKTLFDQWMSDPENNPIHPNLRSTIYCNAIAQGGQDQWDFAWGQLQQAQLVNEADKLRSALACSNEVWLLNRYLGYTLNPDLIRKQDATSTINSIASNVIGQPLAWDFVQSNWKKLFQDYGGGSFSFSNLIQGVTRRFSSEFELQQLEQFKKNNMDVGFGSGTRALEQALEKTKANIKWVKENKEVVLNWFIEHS
Description: Allcompounds were pre-incubated with APN on a 96-well plate for 30 min. […] Fifteen minutes later, the absorbance (OD405) of the wells was recorded on a microplate reader.

Sequence of 72 kDa type IV collagenase (P08253 whole entry): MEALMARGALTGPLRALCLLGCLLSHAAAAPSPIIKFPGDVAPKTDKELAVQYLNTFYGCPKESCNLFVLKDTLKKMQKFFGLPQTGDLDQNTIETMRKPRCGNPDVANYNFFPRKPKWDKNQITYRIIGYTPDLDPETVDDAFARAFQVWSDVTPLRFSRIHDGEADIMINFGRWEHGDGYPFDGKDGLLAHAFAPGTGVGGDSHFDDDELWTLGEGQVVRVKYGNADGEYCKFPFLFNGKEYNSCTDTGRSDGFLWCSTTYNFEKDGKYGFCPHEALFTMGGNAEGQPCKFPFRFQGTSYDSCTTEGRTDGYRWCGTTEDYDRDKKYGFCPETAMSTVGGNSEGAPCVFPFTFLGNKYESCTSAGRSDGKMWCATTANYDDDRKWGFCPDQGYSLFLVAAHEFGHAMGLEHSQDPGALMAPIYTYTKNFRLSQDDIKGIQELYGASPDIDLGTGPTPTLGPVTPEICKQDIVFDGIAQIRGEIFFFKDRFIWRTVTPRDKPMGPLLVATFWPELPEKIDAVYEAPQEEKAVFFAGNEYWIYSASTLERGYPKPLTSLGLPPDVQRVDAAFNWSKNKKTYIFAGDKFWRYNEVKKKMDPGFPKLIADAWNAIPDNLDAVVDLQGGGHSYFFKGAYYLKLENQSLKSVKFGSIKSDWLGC

SMILES	pIC50 [1]	pIC50 (Aminopeptidase N)
COC(=O)[C@H](Cc1ccccc1)NC(=O)[C@@H](O)CN [Methyl (2S)-2-[(2S)-3-amino-2-hydroxypropanamido]-3-phenylpropanoate (11a)]	< 3.00	3.52
COC(=O)[C@H](CC(C)C)NC(=O)[C@@H](O)CN [L-Isoseryl-L-leucine methyl ester hydrochloride (11b)]	3.17	3.64
CC(C)C[C@H](NC(=O)[C@@H](O)CN)C(=O)OCc1ccccc1 [L-Isoseryl-L-leucine benzyl ester hydrochloride (11d)]	3.00	3.71
NC[C@H](O)C(=O)N[C@@H](Cc1ccccc1)C(=O)O [(2S)-2-[(2S)-3-amino-2-hydroxypropanamido]-3-phenylpropanoic acid (12a)]	3.15	3.60
CC(C)C[C@H](NC(=O)[C@@H](O)CN)C(=O)O	3.44	3.70
NC[C@H](O)C(=O)N[C@@H](Cc1ccccc1)C(=O)OCc1ccccc1 [L-Isoseryl-L- phenylalanine benzyl ester hydrochloride (11c)]	3.48	4.00
CC(C)C[C@H](NC(=O)[C@@H](O)[C@H](N)Cc1ccccc1)C(=O)O	3.78	
CC(C)C[C@H](NC(=O)[C@H](Cc1ccccc1)NC(=O)[C@@H](O)CN)C(=O)OCc1ccccc1 [L-Isoseryl-L-phenylalanyl-L-leucine benzyl ester hydrochloride (13d)]	3.48	4.49
COC(=O)[C@H](Cc1ccccc1)NC(=O)[C@H](CC(C)C)NC(=O)[C@@H](O)CN [L-Isoseryl-L-leucyl-L-phenylalanine methyl ester hydrochloride (13a)]	3.90	3.86
CC(C)C[C@H](NC(=O)[C@@H](O)CN)C(=O)N[C@@H](Cc1ccccc1)C(=O)O [L-Isoseryl-L-leucyl-L-phenylalanine hydrochloride (14a)]	3.94	4.68
CC(C)C[C@H](NC(=O)[C@H](Cc1ccccc1)NC(=O)[C@@H](O)CN)C(=O)O [L-Isoseryl-L-phenylalanyl-L-leucine hydrochloride (14b)]	3.69	4.91
